The experiment has as its target human F508del-CFTR (Homo sapiens, UniProt P13569, DEL508-508). The experiment is described as follows: F508del-CFTR cell surface expression (corrector activity), DiscoveRx ß-galactosidase complementation chemiluminescence assay in recombinant U2OS cell line.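 For all read-outs here: U2OS cells co-expressing ProLink-tagged F508del-CFTR and a membrane-anchored enzyme acceptor, where more surface CFTR restores β-galactosidase activity measured by chemiluminescence.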 To be noted: for pEC50: EC50, F508del-CFTR cell surface expression, U2OS cells, 16h compound incubation, geomean values; for Emax: U2OS, in relation to Emax of corrector lumacaftor (=100%), arithmetic mean values.

pEC50: −log10 of the molar value.

Chain of human F508del-CFTR (P13569 with tags, fused parts or gaps DEL508-508): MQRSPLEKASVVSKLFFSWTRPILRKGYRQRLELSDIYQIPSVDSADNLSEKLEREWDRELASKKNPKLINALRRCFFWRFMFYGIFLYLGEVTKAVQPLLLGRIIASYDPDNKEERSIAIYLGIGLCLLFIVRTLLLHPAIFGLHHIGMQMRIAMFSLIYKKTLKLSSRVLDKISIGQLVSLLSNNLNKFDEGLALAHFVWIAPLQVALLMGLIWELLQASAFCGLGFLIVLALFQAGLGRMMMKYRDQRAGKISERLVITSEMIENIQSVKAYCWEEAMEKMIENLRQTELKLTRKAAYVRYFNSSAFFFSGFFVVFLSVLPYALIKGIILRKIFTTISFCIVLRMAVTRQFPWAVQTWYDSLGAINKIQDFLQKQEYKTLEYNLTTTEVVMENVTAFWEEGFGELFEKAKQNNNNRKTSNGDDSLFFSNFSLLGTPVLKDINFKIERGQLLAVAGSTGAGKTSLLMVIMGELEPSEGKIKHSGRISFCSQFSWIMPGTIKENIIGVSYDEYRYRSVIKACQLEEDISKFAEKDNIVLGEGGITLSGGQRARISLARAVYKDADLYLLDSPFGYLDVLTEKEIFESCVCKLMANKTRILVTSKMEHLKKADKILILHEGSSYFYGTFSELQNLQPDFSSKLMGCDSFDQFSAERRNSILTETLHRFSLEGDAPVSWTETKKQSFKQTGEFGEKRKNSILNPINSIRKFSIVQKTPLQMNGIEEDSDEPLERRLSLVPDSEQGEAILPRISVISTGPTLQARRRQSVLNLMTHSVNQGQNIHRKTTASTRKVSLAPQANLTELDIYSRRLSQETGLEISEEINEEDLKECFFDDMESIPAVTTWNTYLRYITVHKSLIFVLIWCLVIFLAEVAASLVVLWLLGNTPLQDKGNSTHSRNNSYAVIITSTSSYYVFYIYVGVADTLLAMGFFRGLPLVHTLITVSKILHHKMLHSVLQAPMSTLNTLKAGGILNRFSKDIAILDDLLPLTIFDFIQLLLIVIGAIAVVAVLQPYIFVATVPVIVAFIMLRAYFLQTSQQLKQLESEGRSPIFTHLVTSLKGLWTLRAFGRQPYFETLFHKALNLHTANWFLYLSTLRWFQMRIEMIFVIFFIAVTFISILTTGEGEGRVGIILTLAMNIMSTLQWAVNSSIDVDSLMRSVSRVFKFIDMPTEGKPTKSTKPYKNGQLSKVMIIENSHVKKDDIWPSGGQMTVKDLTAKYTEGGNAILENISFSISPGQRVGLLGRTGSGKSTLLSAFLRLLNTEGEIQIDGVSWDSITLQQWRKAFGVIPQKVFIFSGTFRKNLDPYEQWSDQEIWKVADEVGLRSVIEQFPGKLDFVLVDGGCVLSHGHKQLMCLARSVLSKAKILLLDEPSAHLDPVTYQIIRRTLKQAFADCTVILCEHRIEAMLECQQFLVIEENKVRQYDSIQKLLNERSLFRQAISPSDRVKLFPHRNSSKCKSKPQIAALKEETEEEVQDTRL

Turning to `COc1cccc(CCNC(=O)[C@@H]2CC(=O)N(C)[C@@H](CC(C)C)C(=O)N3CCN(S(=O)(=O)c4cccnc4)C[C@@H]3C(=O)N[C@H](Cc3ccccc3)COc3ccc4ccccc4c3C(=O)N2)c1` [Example 742, (4aR,7R,18S,22S)-7-benzyl-22-isobutyl-N-(3-methoxyphenethyl)-21-methyl-5,16,20,23-tetraoxo-3-(pyridin-3-ylsulfonyl)-2,3,4,4a,5,6,7,8,16,17,18,19,20,21,22,23-hexadecahydro-1H-naphtho[1,2-p]pyrazino[2,1-f][1]oxa[4,7,10,14]tetraazacycloheptadecine-18-carboxamide], the pEC50 (as a rule, the EC50 on a negative log10 scale, so that one unit is a factor of ten) was 6.67 and the maximal effect (Emax) (usually the greatest response seen or fitted, relative to the assay's reference) was 246%.

As for `COCCCS(=O)(=O)N1CCN2C(=O)[C@H](CC(C)C)N(C)C(=O)C[C@@H](C(=O)NCCc3cccc(OC)c3)NC(=O)c3c(ccc4ccccc34)OC[C@@H](Cc3ccccc3)NC(=O)[C@H]2C1` [Example 743, (4aR,7R,18S,22S)-7-benzyl-22-isobutyl-N-(3-methoxyphenethyl)-3-((3-methoxypropyl)sulfonyl)-21-methyl-5,16,20,23-tetraoxo-2,3,4,4a,5,6,7,8,16,17,18,19,20,21,22,23-hexadecahydro-1H-naphtho[1,2-p]pyrazino[2,1-f][1]oxa[4,7,10,14]tetraazacycloheptadecine-18-carboxamide], the pEC50 is 6.68 and the Emax is 217%.

Consider `COc1cccc(CCNC(=O)[C@@H]2CC(=O)N(C)[C@@H](CC(C)C)C(=O)N3CCN(S(=O)(=O)c4cncc(OC)c4)C[C@@H]3C(=O)N[C@H](Cc3ccccc3)COc3ccc4ccccc4c3C(=O)N2)c1` [Example 744, (4aR,7R,18S,22S)-7-benzyl-22-isobutyl-N-(3-methoxyphenethyl)-3-((5-methoxypyridin-3-yl)sulfonyl)-21-methyl-5,16,20,23-tetraoxo-2,3,4,4a,5,6,7,8,16,17,18,19,20,21,22,23-hexadecahydro-1H-naphtho[1,2-p]pyrazino[2,1-f][1]oxa[4,7,10,14]tetraazacycloheptadecine-18-carboxamide], for which the pEC50 is 6.75 and the Emax turned out to be 239%.

As for `COc1cccc(CCNC(=O)[C@@H]2CC(=O)N(C)[C@@H](CC(C)C)C(=O)N3CCN(S(=O)(=O)CCN4CCOCC4)C[C@@H]3C(=O)N[C@H](Cc3ccccc3)COc3ccc4ccccc4c3C(=O)N2)c1` [Example 745, (4aR,7R,18S,22S)-7-benzyl-22-isobutyl-N-(3-methoxyphenethyl)-21-methyl-3-((2-morpholinoethyl)sulfonyl)-5,16,20,23-tetraoxo-2,3,4,4a,5,6,7,8,16,17,18,19,20,21,22,23-hexadecahydro-1H-naphtho[1,2-p]pyrazino[2,1-f][1]oxa[4,7,10,14]tetraazacycloheptadecine-18-carboxamide], the pEC50 was 6.16 and the Emax turned out to be 206%.

In the case of `COc1cccc(CCNC(=O)[C@@H]2CC(=O)N(C)[C@@H](CC(C)C)C(=O)N3CCN(S(=O)(=O)CC4CCOCC4)C[C@@H]3C(=O)N[C@H](Cc3ccccc3)COc3ccc4ccccc4c3C(=O)N2)c1` [Example 746, (4aR,7R,18S,22S)-7-benzyl-22-isobutyl-N-(3-methoxyphenethyl)-21-methyl-5,16,20,23-tetraoxo-3-(((tetrahydro-2H-pyran-4-yl)methyl)sulfonyl)-2,3,4,4a,5,6,7,8,16,17,18,19,20,21,22,23-hexadecahydro-1H-naphtho[1,2-p]pyrazino[2,1-f][1]oxa[4,7,10,14]tetraazacycloheptadecine-18-carboxamide], the pEC50 was 6.68 and the Emax was determined as 213%.
